From PMC6155752, “Synthesis of 16 New Hybrids from Tetrahydropyrans Derivatives and Morita-Baylis-Hillman Adducts: In Vitro Screening against Leishmania donovani” (Molecules : A Journal of Synthetic Chemistry and Natural …, 2017)
Where “and” joins values, the source holds several entries; their conditions need not be identical. Identical values can stand only once. Like-named read-outs stand apart in the source and are kept apart here.

Legend:
[1] = test system: promastigotes of Leishmania donovani; assay: Effect on promastigotes of Leishmania donovani (MTT viability assay, 72 h); format: cell-based; details: L. donovani promastigotes; for IC50: read-out: IC50 (half maximal inhibitory concentration)
Experimental: Leishmania (Leishmania) donovani (MHOM/ET/1967/HU3) was provided by Oswaldo Cruz Institute Leishmania Collection-Fiocruz-RJ-Brazil. Promastigotes were maintained in vitro at 26 °C in Schneider's medium, pH 7 (20% heat-inactivated fetal bovine serum (FBS), 100 U/mL penicillin, […] streptomycin, and 2% of male urine), as previously described. […] The plates were incubated for 72 h in a biological oxygen demand (B.O.D.) incubator at 26 °C. […] [30].The absorbance was measured using an ELISA plate reader (ELx800, BIOTEK) at 540 nm. Amphotericin® was used as a positive control. The viability of promastigotes incubated in the presence of different concentrations of adducts was determined by comparing to a culture control (L. donovani cultivated in Schneider only). The concentration that caused a 50% reduction in cell viability (IC50) was calculated by Probit analysis (SPSS 13.0 for Windows). Each experiment was performed in duplicate and repeated at least three times.

[2] = test system: acetic acid-induced abdominal writhes; design: method as in earlier work; details: mice, ref 16 (Capim et al., Bioorg. Med. Chem. 2013); cited from earlier work
[3] = test system: human red blood cells; assay: Haemolytic assay towards human red blood cells; format: cell-based; details: HC50 red blood cells / IC50 L. donovani promastigotes
Experimental: Briefly, promastigotes in the logarithmic growth phase were cultured in 96-well cell culture plates at 1 × 10^6 parasites per well in […] of Schneider's medium with increasing concentrations of 3.12, 6.25, 12.5, 25, 50, 100, 200, and 400 µg/mL of Morita-Baylis-Hillman adduct. The plates were incubated for 72 h in a biological oxygen demand (B.O.D.) incubator at 26 °C. Cytotoxicity to promastigotes was evaluated by the 3-(4,5-dimethyl-2-thiazole)-2,5-diphenyltetrazolium bromide (MTT) colorimetric assay as described by Valadares et al..The absorbance was measured using an ELISA plate reader (ELx800, BIOTEK) at 540 nm. Amphotericin® was used as a positive control. The viability of promastigotes incubated in the presence of different concentrations of adducts was determined by comparing to a culture control (L. donovani cultivated in Schneider only). The concentration that caused a 50% reduction in cell viability (IC50) was calculated by Probit analysis (SPSS 13.0 for Windows). Each experiment was performed in duplicate and repeated at least three times. Haemolytic assays (HC50 > […]) towards human red blood cells were performed as described in the literature.

[4] = test system: L. donovani; design: method as in PMID 27520941; details: read-out: anti-leishmania activity; cited from earlier work
[5] = test system: Leishmania; details: read-out: IC50 (leishmanicidal activity), cited from earlier work
[6] = test system: acetic acid-induced abdominal writhes; assay: Acetic acid-induced abdominal writhes in mice; format: in vivo; details: unpublished results
[7] = Figure 1, hybrid 1 and precursors
[8] = Figure 1, hybrid 5 and precursor eugenol

Compound | IC50 ([1]; Leishmania donovani) | also measured
2-(Hydroxy-naphthalen-2-yl-methyl)-acrylic acid 4-chloro-6-naphthalen-1-yl-tetrahydro-pyran -2-ylmethyl ester [8g] |  | IC50 (half maximal inhibitory concentration) [1]: 24.51 ± 7.5 µg/mL; IC50 [1]: 50.4 ± 15.4 µM
2-(Hydroxy-naphthalen-2-yl-methyl)-acrylic acid 6-ethyl-tetrahydro-pyran-2-ylmethyl ester [9g] |  | IC50 (half maximal inhibitory concentration) [1]: 9.73 ± 4.8 µg/mL; IC50 [1]: 27.5 ± 13.6 µM
OC[C@H]1C[C@@H](Cl)C[C@@H](c2cccc3ccccc23)O1 (relative stereo) [compound 6, [(±)-(2,4,6-cis)-4-chloro-6-(naphthalen-1-yl)-tetrahydro-2H-pyran-2-yl]methanol] | 47.5 µg/mL and 172 µM | Calculated ED50 [2]: 27.97 μmol·kg^–1
C=C(C(=O)OCC1CC(Cl)CC(c2cccc3ccccc23)O1)C(O)c1ccccc1[N+](=O)[O-] (stereo not shown) [8a, 2-[Hydroxy-(2-nitro-phenyl)-methyl]-acrylic acid 4-chloro-6-naphthalen-1-yl-tetrahydro-pyran-2-ylmethyl ester] | 7.09 µg/mL and 14.7 µM | SIrb (selectivity index on red blood cell) = HC50/IC50 [3]: >56.40
C=C(C(=O)OCC1CC(Cl)CC(c2cccc3ccccc23)O1)C(O)c1cccc([N+](=O)[O-])c1 (stereo not shown) [8b, 2-[Hydroxy-(3-nitro-phenyl)-methyl]-acrylic acid 4-chloro-6-naphthalen-1-yl-tetrahydro-pyran-2-yl-methyl ester] | 8.76 µg/mL and 18.2 µM | 
C=C(C(=O)OCC1CC(Cl)CC(c2cccc3ccccc23)O1)C(O)c1ccc([N+](=O)[O-])cc1 (stereo not shown) [8c, 2-[Hydroxy-(4-nitro-phenyl)-methyl]-acrylic acid 4-chloro-6-naphthalen-1-yl-tetrahydro-pyran-2-ylmethyl ester] | 9.05 µg/mL and 18.8 µM | 
C=C(C(=O)OCC1CC(Cl)CC(c2cccc3ccccc23)O1)C(O)c1ccccn1 (stereo not shown) [8d, 2-(Hydroxy-pyridin-2-yl-methyl)-acrylic acid 4-chloro-6-naphthalen-1-yl-tetrahydro-pyran-2-yl methyl ester] | 61.9 µg/mL and 142 µM | 
C=C(C(=O)OCC1CC(Cl)CC(c2cccc3ccccc23)O1)C(O)c1cccnc1 (stereo not shown) [8e, 2-(Hydroxy-pyridin-3-yl-methyl)-acrylic acid 4-chloro-6-naphthalen-1-yl-tetrahydro-pyran-2-yl methyl ester] | 8.76 µg/mL and 20 µM | 
C=C(C(=O)OCC1CC(Cl)CC(c2cccc3ccccc23)O1)C(O)c1ccncc1 (stereo not shown) [8f, 2-(Hydroxy-pyridin-4-yl-methyl)-acrylic acid 4-chloro-6-naphthalen-1-yl-tetrahydro-pyran-2-yl methyl ester] | 8.96 µg/mL and 20.5 µM | 
C=C(C(=O)OCC1CC(Cl)CC(c2cccc3ccccc23)O1)C(O)c1ccc(Br)cc1 (stereo not shown) [8h, 2-[(4-Bromo-phenyl)-hydroxy-methyl]-acrylic acid 4-chloro-6-naphthalen-1-yl-tetrahydro-pyran-2-ylmethyl ester] | 17.2 µg/mL and 33.4 µM | 
C=C(C(=O)OCC1CCCC(CC)O1)C(O)c1ccccc1[N+](=O)[O-] (stereo not shown) [9a, 2-[Hydroxy-(2-nitro-phenyl)-methyl]-acrylic acid 6-ethyl-tetrahydro-pyran-2-ylmethyl ester] | 5.64 µg/mL and 16.1 µM | SIrb (selectivity index on red blood cell) = HC50/IC50 [3]: >70.94
C=C(C(=O)OCC1CCCC(CC)O1)C(O)c1cccc([N+](=O)[O-])c1 (stereo not shown) [9b, 2-[Hydroxy-(3-nitro-phenyl)-methyl]-acrylic acid 6-ethyl-tetrahydro-pyran-2-ylmethyl ester] | 13.8 µg/mL and 39.4 µM | 
C=C(C(=O)OCC1CCCC(CC)O1)C(O)c1ccc([N+](=O)[O-])cc1 (stereo not shown) [9c, 2-[Hydroxy-(4-nitro-phenyl)-methyl]-acrylic acid 6-ethyl-tetrahydro-pyran-2-ylmethyl ester] | 7.03 µg/mL and 20.1 µM | SIrb (selectivity index on red blood cell) = HC50/IC50 [3]: >56.91
C=C(C(=O)OCC1CCCC(CC)O1)C(O)c1ccccn1 (stereo not shown) [9d, 2-(Hydroxy-pyridin-2-yl-methyl)-acrylic acid 6-ethyl-tetrahydro-pyran-2-ylmethyl ester] | 72.3 µg/mL and 240 µM | 
C=C(C(=O)OCC1CCCC(CC)O1)C(O)c1cccnc1 (stereo not shown) [9e, 2-(Hydroxy-pyridin-3-yl-methyl)-acrylic acid 6-ethyl-tetrahydro-pyran-2-ylmethyl ester] | 17.7 µg/mL and 57.9 µM | 
C=C(C(=O)OCC1CCCC(CC)O1)C(O)c1ccncc1 (stereo not shown) [9f, 2-(Hydroxy-pyridin-4-yl-methyl)-acrylic acid 6-ethyl-tetrahydro-pyran-2-ylmethyl ester] | 57.8 µg/mL and 189 µM | 
C=C(C(=O)OCC1CCCC(CC)O1)C(O)c1ccc(Br)cc1 (stereo not shown) [9h, 2-[(4-Bromo-phenyl)-hydroxy-methyl]-acrylic acid 6-ethyl-tetrahydro-pyran-2-ylmethyl ester] | 2.22 µg/mL and 5.81 µM | SIrb (selectivity index on red blood cell) = HC50/IC50 [3]: >180.19
C[C@@H]1[C@H](O)[C@@H](C)/C=C/C=C/C=C/C=C/C=C/C=C/C=C/[C@H](O[C@@H]2O[C@H](C)[C@@H](O)[C@H](N)[C@@H]2O)C[C@@H]2O[C@](O)(C[C@@H](O)C[C@@H](O)[C@H](O)CC[C@@H](O)C[C@@H](O)CC(=O)O[C@H]1C)C[C@H](O)[C@H]2C(=O)O [Amphotericin B, reference compound] | 0.35 µg/mL and 380 nM | IC50 [4]: 0.62 µM; SIrb (selectivity index on red blood cell) = HC50/IC50 [3]: 33.05
C=C(C(=O)Oc1ccccc1C(=O)OC)C(O)c1ccccc1[N+](=O)[O-] (stereo not shown) [compound 1] |  | IC50 [5, 7]: 28.3 µM
COC(=O)c1ccccc1O [compound 2, methyl salicylate] |  | IC50 [5, 7]: 1720 µM
C=C(C(=O)OC)C(O)c1ccccc1[N+](=O)[O-] (stereo not shown) [compound 3] |  | IC50 [5, 7]: 347 µM
C=CCc1ccc(O)c(OC)c1 [compound 4, eugenol] |  | IC50 [5, 8]: 77.5 µM
CC[C@@H]1CCC[C@H](CO)O1 [compound 5] |  | IC50 [5, 8]: 4.7 µM
CC[C@@H]1CCC[C@H](CO)O1 [compound 7] | > 400 µg/mL and > 2.78 mM | Calculated ED50 [6]: 41.67 μmol·kg^–1
